Experiment [1] deals with Streptococcus mutans. Briefly: Antimicrobial activity against Streptococcus mutans ATCC 25175 after 48 hrs by twofold serial broth dilution method. The conditions noted are these: ATCC 25175, 48 h. In kind it is functional.
Experiment [2] concerns Corynebacterium ammoniagenes. Briefly: Antimicrobial activity against Brevibacterium ammoniagenes ATCC 6872 after 48 hrs by twofold serial broth dilution method. Type of experiment: functional. The conditions noted are these: ATCC 6872, 48 h. (In broth dilution the organism is exposed to a series of concentrations in liquid medium.)

Molecules are shown by their SMILES. ≈ marks a conversion by molar mass, not a printed value. Where only a bound is given, the exact number is not on record here.

As a reminder, the MIC is the lowest concentration found to suppress growth.

Regarding `CC(C)[C@H]1C(=O)CC2(C)C3C(C=O)=CC[C@@H]2[C@H]31`, the MIC in experiment [1] and in experiment [2] was 800 µg/mL (≈ 3.44 mM) in each case.

In the case of `CC(C)[C@H]1C(=O)C[C@@]2(C)[C@@H]3C(CO)=CC[C@H]2[C@H]13`, the MIC in experiment [1] and in experiment [2] was more than 800 µg/mL throughout.

As for `CC(C)[C@@H]1C(=O)CC2(C)C3C(CO)=CC[C@@H]2[C@H]31`, the MIC in experiment [1] and in experiment [2] was more than 800 µg/mL in each case.

Regarding `CC(C)[C@@H]1C(=O)CC2(C)C3C(C=O)=CC[C@@H]2[C@H]31`, the MIC in experiment [1] and in experiment [2] was 800 µg/mL (≈ 3.44 mM) throughout.

Regarding `CC(C)[C@@H]1CCC2(C)C3C(CO)=CC[C@@H]2[C@H]31` [YLANGENOL], the MIC in experiment [1] and in experiment [2] was 25 µg/mL (≈ 0.113 mM) in each case.

The values above are taken from ChEMBL document CHEMBL1158946, “Sesquiterpenoids from Brachylaena hutchinsii” (1991).
